Experimental data as given in patent US20110054025A1, “USE OF A PENTACYCLIC TRITERPENE IN A PHARMACEUTICAL COMPOSITION FOR THE TREATMENT OF MULTIPLE SCLEROSIS” (CONSEJO SUPERIOR DE INVESTIGACIONES CIENTIFICAS, priority 2008, published 2011).
“Also recorded” adds a separate entry of the source.

Legend:
Assay type in all cases: in vivo, C57BL/6 mice
[1] = system: experimental autoimmune encephalomyelitis (EAE) mice; assay: Experimental autoimmune encephalomyelitis (EAE) in mice: clinical score, body weight, survival
Method: In the experiments we used fifteen animals per group. EAE was induced as described (Slavin A. Autoimmunity 1998, 28: 109) in C57BL mice by […]. The immunization was carried out with 100 μg of a partial peptide of myelin/oligodendrocyte glycoprotein ([…]) in complete Freund's adjuvant containing 4 mg of Mycobacterium tuberculosis H37Ra in 1 ml. The mice were immunized by subcutaneous injection of this emulsion on day 0. In addition, on day 0 and 2, were administered intraperitoneally 300 ng/200 μl of Bordetella pertussis toxin. The administration of 6 mg/kg of oleanolic acid was performed intraperitoneally once a day, beginning:
1.—12 days after induction of EAE, when clinical symptoms were detected, until the end of the experiment (21 days after induction) (OA1), and
2.—after 7 days of induction of EAE, before the onset of the disease, until the end of the experiment (21 days after induction) (OA2).
Mice were examined, weighed and scored daily in a double-blind manner for signs of EAE. OA-treated EAE mice were compared with a group of EAE animals treated with placebo, with untreated control animals or control animals received the same daily dose oleanolic acid. In addition, a pathologic evaluation was performed to confirm the effect of improving the state of the disease. The weight of the mice in each group is represented in FIGS. 1 A and 2 A. The level of paralysis reached by each group of mice is shown in FIGS. 1 B and 2 B.
The effect of disease improvement (clinical effect) by the action of oleanolic acid is scored and evaluated with the pattern presented below.
Grade 0.5, partial loss/reduced tail tone, assessed by inability to curl the distal end of the tail (Tail 50% or ⅔).
Grade 1.0, tail atony 100%
Grade 1.5, slightly/moderately clumsy gait, impaired righting ability, or combination.
Grade 2.0, hind limb weakness, partial (1 or 2)
Grade 2.5, partial (1 or 2) hind limb paralysis.
Grade 3, complete hind limb paralysis.
Grade 3.5, limb weakness.
Grade 4, tetraplegic. Complete limb paralysis
Grade 5, moribund state or death.
Chronic progressive EAE disease was induced in adult 8-10-wk-old female C57BL/J6 mice following the protocol described by (Slavin A. Autoimmunity 1998, 28:109-20). Mice were injected in the tail base bilaterally with an innoculum containing 100 μg of MOG peptide 35-55 emulsified in complete Freund's adjuvant containing 0.4 mg/ml Mycobacterium tuberculosis H37 RA. Then, i.p. injection 300 ng/animal of B. pertussis toxin was administered by two times with an interval of 48 hours. Mice were examined daily to monitor weight loss and the onset of neurological symptoms

[2] = system: leukocyte rolling and adhesion on brain microvasculature; assay: Intravital fluorescence microscopy of leukocyte-endothelium interactions in brain microvasculature of EAE mice; conditions: vs untreated EAE group
Method: Intravital microscopy techniques allow the study of leukocyte-endothelium interactions. […] To make a precise study of leukocyte-endothelium interactions, we first made a record of the venule for one minute using a camcorder, and in a second time, a more detailed analysis was performed. The parameters of interest were the number of leukocytes adhering to the venular endothelium (number of leukocytes stationary for more than 30 seconds), and the number of rolling leukocytes (number of white cells per minute moving at a velocity less than that of erythrocytes).
The craniotomy was performed on the parietal zone. Animals received i.v. administration of rhodamine 6G (0.3 mg/kg body weight) to fix leucocytes. The fluorescence associated to rhodamine 6G was visualized at 510-560 nm by epi-ilumination. The microscope (20×) was used for observing micro-circulating events in brain.

[3] = system: blood-brain barrier permeability; assay: Evans blue extravasation (blood-brain barrier permeability) in CNS tissues of EAE mice; conditions: spinal cord, brain and cerebellum, vs untreated EAE animals
Method: Evans blue dye is able to bind quantitatively to albumin, both in vivo and in vitro. This property has been widely used for quantification of protein extravasation as an index of increased vascular permeability and, indirectly, of tissue damage. The Evans Blue, once extravasated into the tissues, is removed from them, and then quantified by visible spectrophotometry.
Mice from all experimental groups were given 30 mg/kg of Evans Blue i.p. Then, the spinal cord, cerebrum and cerebellum was removed and washed in saline. The dye was extracted from the CNS tissues with formamide and the concentration was determined by measuring the absorvance at 620 nm. CNS tissue was dried 24 h at 60° C. and weighed. The extravasated dye was expressed as μg of Evans Blue/mg dried weight of the tissue.

Osteopontin = Osteopontin in CNS tissues of EAE mice by ELISA; conditions: spinal cord, brain and cerebellum, day 21 post-immunization, vs EAE mice
Method: Animals of the different experimental groups were sacrificed at day 21 post-immunization and CNS protein extracts (cerebral cortex, cerebellum and spinal cord) were prepared by homogenization in a solution: 0.4 M NaCl, 0.05% Tween 20, 0.5% BSA, 0.1 mM phenylmethylsulfonyl fluoride, 0.1 mM benzetonium chloride, 10 mM EDTA and 20 KI aprotinin (100 mg tissue/ml). The homogenate was centrifuged at 10,000 rpm for 10 min at 4° C. The concentration of osteopontin was determined in the supernatants by a commercial ELISA kit.

For `CC1(C)CC[C@]2(C(=O)O)CC[C@]3(C)C(=CCC4[C@@]5(C)CC[C@H](O)C(C)(C)C5CC[C@]43C)C2C1` (stereo partly drawn) [oleanolic acid, 3β-hydroxyolean-12-en-28-oic acid], the “clinical status / severity of the disease (signs of paralysis score)” value ([1]; OA1: 6 mg/kg ip daily from day 12 after induction (onset of clinical symptoms) to day 21, vs untreated EAE mice) was “decreases the severity of the disease; also recorded: significant improvement in clinical status of the disease”, the body weight ([1]; OA1: 6 mg/kg ip daily from onset of symptoms, recovery effect (FIG. 1A)) was “reduction of body weight was suppressed” and the body weight ([1]; OA2: 6 mg/kg ip daily from day 7, preventive effect (FIG. 2A)) was “reduction of body weight was suppressed”. For the same compound, the “onset of the disease” value ([1]; OA2: prophylactic, 6 mg/kg ip daily from day 7 after induction to day 21, 6 mg/kg) was “delays the onset of EAE; also recorded: delay in the onset of the disease”, the “severity of EAE (clinical signs)” value ([1]; OA2: prophylactic, 6 mg/kg ip daily from day 7 after induction to day 21, vs untreated EAE mice) was “significantly attenuated” and the “survival (time until animals die)” value ([1]; oleanolic acid given at the onset of symptoms, placebo-treated EAE mice die within first 40 days) was ≥ 60 days post-induction. The “flow of leukocytes rolling on the endothelium” value ([2]; protocol EAE+OA1) was “significant decrease”, the “leukocytes adhering to the endothelium” value ([2]; protocol EAE+OA1) was “significant decrease” and the “flow of leukocytes rolling on the endothelium” value ([2]; protocol EAE+OA2) was “significant decrease”. The “leukocytes adhering to the endothelium” value ([2]; protocol EAE+OA2) was “significant decrease”, the “Evans blue leakage in CNS tissues (vascular permeability)” value ([3]; protocol EAE+OA1) was “significantly reduced leakage” and the “Evans blue leakage in CNS tissues (vascular permeability)” value ([3]; protocol EAE+OA2) was “significantly reduced leakage”. For the same compound, the “Osteopontin expression in CNS tissues” value (Osteopontin; protocol OA1) was “significantly reduced” and the “Osteopontin expression in CNS tissues” value (Osteopontin; second protocol (printed OA1, FIG. 5: EAE+OA2)) was “significantly reduced”.
